Assay results from paper PMC7504721, “Targeting the Initiator Protease of the Classical Pathway of Complement Using Fragment-Based Drug Discovery” (Molecules, 2020).

Target: T1, full-length C1r (Homo sapiens, UniProt P00736)
T1 construct: purchased Complement Technology (CompTech)
T1 sequence (P00736 18-463 limits assumed): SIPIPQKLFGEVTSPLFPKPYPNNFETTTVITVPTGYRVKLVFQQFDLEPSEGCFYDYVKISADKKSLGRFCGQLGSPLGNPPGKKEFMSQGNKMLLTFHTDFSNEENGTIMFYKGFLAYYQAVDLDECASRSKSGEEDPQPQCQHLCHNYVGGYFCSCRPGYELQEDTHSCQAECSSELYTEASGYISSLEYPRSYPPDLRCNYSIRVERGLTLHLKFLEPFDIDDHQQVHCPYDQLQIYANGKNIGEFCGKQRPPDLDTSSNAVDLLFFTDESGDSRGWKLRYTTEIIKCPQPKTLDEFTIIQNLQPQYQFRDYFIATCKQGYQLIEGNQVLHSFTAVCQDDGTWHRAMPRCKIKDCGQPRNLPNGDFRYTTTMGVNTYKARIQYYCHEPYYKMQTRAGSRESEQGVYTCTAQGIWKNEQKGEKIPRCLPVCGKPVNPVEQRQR
T1 sequence (P00736 464-705 limits assumed): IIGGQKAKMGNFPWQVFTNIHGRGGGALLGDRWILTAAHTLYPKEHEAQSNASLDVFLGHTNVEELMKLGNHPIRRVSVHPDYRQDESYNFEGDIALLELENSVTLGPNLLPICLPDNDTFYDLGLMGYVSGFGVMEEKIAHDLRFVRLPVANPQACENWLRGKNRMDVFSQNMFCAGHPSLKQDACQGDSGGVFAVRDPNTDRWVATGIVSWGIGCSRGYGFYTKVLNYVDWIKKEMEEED
Assay: SPR dose-dependent binding, steady-state affinity
Conditions: for Kd: 1:1 steady-state binding model, mean ± S.D. from three independent injection series, 25 °C; for Ligand efficiency (LE): LE = ΔG/number of non-hydrogen atoms, ΔG = -RT x ln KD,C1r, using KD values of Fig. 3
Description: All SPR experiments were carried out using a Biacore T200 (GE Healthcare, Chicago, IL, USA) at 25 °C. For all experiments, a running buffer (HBS-T) of 20 mM HEPES (pH 7.3), 140 mM NaCl, 0.005% (v/v) Tween-20, 5% DMSO (v/v) was used. For each experiment, DMSO calibration curves ranging from 4% to 5.5% DMSO (v/v) were collected at the beginning, end, and every 50 cycles throughout the duration of the experiment. All experiments were performed using HC1500M sensor chips (Xantec, Duesseldorf, Germany). In total, 10 sensor chips and 16 ligand immobilized surfaces were created over the course of this study (detailed in Table S2). In all cases, C1r proteins were immobilized onto chip surfaces using amine-coupling chemistry with 1-ethyl-3-(3-dimethylaminopropyl)-carbodiimide) (EDC), N-hydroxysuccinimide (NHS), followed by ethanolamine. Briefly, 100 mM of EDC and NHS were mixed and injected to activate the chip surface followed by the C1r protein ligand captured at a defined resonance unit (RU) level, followed by reaction quenching with 100 mM ethanolamine pH 8.5. Flow cell 1 was always used as a reference cell (no ligand), unless otherwise noted. All sensorgrams were reference and blank subtracted and analyzed using T200 Evaluation Software (GE Healthcare, Chicago, IL, USA).
To further evaluate hit compounds from the initial SPR screen, dose-dependent SPR binding assays were carried out. Three replicate flow cells were used containing both low and high immobilization densities of C1r (see Table S2). Hit compounds were tested for dose-dependent binding to full-length C1r using a compound concentration range of 7.8–500 µM. T200 evaluation software was used to calculate steady-state affinities for each compound by fitting sensorgrams from each variable concentration injection dataset using a 1:1 Langmuir model of interaction constrained by a theoretical experimental binding response based on the mol. wt. of each compound and derived as stated above. KD values are reported as the mean ± the standard deviation from at least three independent measurements.

Kd [µM] | Ligand efficiency (LE) | Compound
480 | 0.28 | CN(C)c1cc(N2CCCC(N)C2)ncn1 (centres unmarked) [CMP-1611]
670 | 0.22 | COCc1nc(-c2ccc(OC3CNC3)cc2)no1 [CMP-1696]
11 | – | N=C(N)c1ccc2cc(OC(=O)c3ccc(N=C(N)N)cc3)ccc2c1 [Futhan, reference compound]
